Publication PMC7001580 (Nature chemical biology, 2016)
Changes are numbered by the printed parent chain.

Key:
[1] = biological target: T1, YMR027W (Saccharomyces cerevisiae, UniProt Q04371, N255A); assay: phosphatase activity compared with wild type; format: biochemical; settings: alanine mutant of signature residue
T1 sequence (Q04371 1-470 N255A): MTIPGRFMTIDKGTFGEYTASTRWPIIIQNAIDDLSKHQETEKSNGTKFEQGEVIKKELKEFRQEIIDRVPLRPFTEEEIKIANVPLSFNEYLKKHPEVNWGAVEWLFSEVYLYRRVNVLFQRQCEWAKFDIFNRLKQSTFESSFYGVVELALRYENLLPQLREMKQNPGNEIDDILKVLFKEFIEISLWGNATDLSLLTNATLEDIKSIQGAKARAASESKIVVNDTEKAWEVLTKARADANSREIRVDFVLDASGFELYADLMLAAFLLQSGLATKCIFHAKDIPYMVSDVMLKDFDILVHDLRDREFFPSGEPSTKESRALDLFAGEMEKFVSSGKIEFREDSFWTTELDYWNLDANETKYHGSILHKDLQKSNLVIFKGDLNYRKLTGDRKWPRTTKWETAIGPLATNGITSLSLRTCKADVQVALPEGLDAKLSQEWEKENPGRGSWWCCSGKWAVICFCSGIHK

[2] = biological target: T2, At2g17340 (Arabidopsis thaliana, UniProt Q949P3, N221A); assay: phosphatase activity compared with wild type; format: biochemical; settings: alanine mutant of signature residue
T2 sequence (Q949P3 1-367 N221A limits assumed): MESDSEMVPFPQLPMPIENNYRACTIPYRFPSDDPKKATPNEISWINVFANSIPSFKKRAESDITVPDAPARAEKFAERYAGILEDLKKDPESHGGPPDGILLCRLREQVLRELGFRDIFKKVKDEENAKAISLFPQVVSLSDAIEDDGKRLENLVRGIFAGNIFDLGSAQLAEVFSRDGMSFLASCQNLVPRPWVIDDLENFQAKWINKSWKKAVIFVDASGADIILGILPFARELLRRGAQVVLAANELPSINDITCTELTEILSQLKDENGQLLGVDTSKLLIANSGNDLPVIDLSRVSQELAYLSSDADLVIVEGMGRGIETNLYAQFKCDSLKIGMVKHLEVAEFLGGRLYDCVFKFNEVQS

[3] = biological target: T3, YMR027W (Saccharomyces cerevisiae, UniProt Q04371, D254A); assay: phosphatase activity compared with wild type; format: biochemical; settings: alanine mutant of signature residue
T3 sequence (Q04371 1-470 D254A): T1 sequence (Q04371 1-470 N255A) with D254A, A255N

[4] = biological target: T4, At2g17340 (Arabidopsis thaliana, UniProt Q949P3, D220A); assay: phosphatase activity compared with wild type; format: biochemical; settings: alanine mutant of signature residue
T4 sequence (Q949P3 1-367 D220A limits assumed): T2 sequence (Q949P3 1-367 N221A limits assumed) with D220A, A221N

[5] = biological target: T5, At2g17340 (Arabidopsis thaliana, UniProt Q949P3); assay: phosphate release, Malachite Green, Hill fit; format: biochemical; settings: 0.2 mM Ni2+, 30 °C; sigmoidal kinetics
T5 sequence (Q949P3 1-367 limits assumed): T2 sequence (Q949P3 1-367 N221A limits assumed) with A221N

[6] = biological target: T6, YMR027W (Saccharomyces cerevisiae, UniProt Q04371); assay: crystal structure, soaking with […] fructose 6-phosphate, […] Å; format: binding; settings: Mg2+ bound, pH 5.5; active site; protein pretreated with chymotrypsin
T6 sequence (Q04371 1-470): T1 sequence (Q04371 1-470 N255A) with A255N

[7] = biological target: T7, PH1575 (Pyrococcus horikoshii, UniProt O59272); assay: phosphate release, Malachite Green, Michaelis-Menten fit; format: biochemical; settings: Ni2+ as preferred metal
T7 sequence (O59272 1-287): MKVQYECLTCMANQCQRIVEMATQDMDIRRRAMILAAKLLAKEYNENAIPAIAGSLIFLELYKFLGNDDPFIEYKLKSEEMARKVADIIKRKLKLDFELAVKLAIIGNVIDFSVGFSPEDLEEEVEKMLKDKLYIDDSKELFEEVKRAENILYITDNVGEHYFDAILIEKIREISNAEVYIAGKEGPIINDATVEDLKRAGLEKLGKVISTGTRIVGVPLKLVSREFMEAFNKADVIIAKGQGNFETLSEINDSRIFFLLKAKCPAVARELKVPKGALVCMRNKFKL

[8] = biological target: the molecule itself; assay: SEC

O=[N+]([O-])c1ccc(OP(=O)(O)O)cc1 [pNPP, p-nitrophenyl phosphate]
catalytic activity [1]: signature residues of YMR027W (Asp254, Asn255, and Asp292)
catalytic activity [2]: At2g17340 (Asp220, Asn221, and Asp256) abolished catalytic activity
catalytic activity [3]: signature residues of YMR027W (Asp254, Asn255, and Asp292)
catalytic activity [4]: At2g17340 (Asp220, Asn221, and Asp256) abolished catalytic activity

O=P(O)(O)OC[C@H]1OC(O)[C@H](O)[C@@H]1O (some centres unmarked) [ribose 5-phosphate]
S0.5 [5]: At2g17340 showed sigmoidal kinetics with ribose 5-phosphate or 2-deoxyribose 5-phosphate

O=P(O)(O)OC[C@H]1OC(O)(CO)[C@@H](O)[C@@H]1O (some centres unmarked) [F6P, fructose 6-phosphate]
crystal structure, soaking with 10 mM fructose 6-phosphate, 1.77 Å [6]: Crystal soaking using YMR027W and the substrate fructose 6-phosphate

Nc1nc2c([nH]c(=O)n2[C@H]2C[C@H](O)[C@@H](COP(=O)(O)OP(=O)(O)OP(=O)(O)O)O2)c(=O)[nH]1 [8-oxo-dGTP]
kinetic constants [7]: the kinetic constants for 8-oxo-dGTP were close to those for ADP

O=P(O)(O)OC[C@H]1OC(O)C[C@@H]1O (some centres unmarked) [2-deoxyribose 5-phosphate]
S0.5 [5]: At2g17340 showed sigmoidal kinetics with ribose 5-phosphate or 2-deoxyribose 5-phosphate

Nc1ncnc2c1ncn2[C@@H]1O[C@H](COP(=O)(O)OP(=O)(O)O)[C@@H](O)[C@H]1O [ADP]
kinetic constants [7]: the kinetic constants for 8-oxo-dGTP were close to those for ADP

B1: Archaeoglobus fulgidus DUF89 subfamily I protein AF1104 (enzyme, A. fulgidus)
chain: MKISPLCPSCLLGRVYYEAKLVTDDEDLISQCVDESLKILAENYSSRPINAHLATRIHRRVYEILGVEDPYAEVKARANEVARQVLPLAKEIVEGSDDPFKTAVIVSIVGNNFDYGVQGHKVVEEEFRDFLKRKVQEGLKINDTERIKELSSGKVVYLTDNAGEIFFDTLLMKEIKRRCEKLTAVVRGRPIISDATIEDARLARVDKIADELLTNGKGAIGIIMDELPDETRKALEEADLIVAKGMANYECLSDGSLKPIAFLLTAKCEPVARDIGVNVGDMVAKVVE
stoichiometry N [8]: 2

B2: Pyrococcus horikoshii DUF89 subfamily I protein PH1575 (enzyme, P. horikoshii)
chain: T7 sequence (O59272 1-287)
stoichiometry N [8]: 2
